The values below come from the RepoRT retention time repository (doi:10.1093/pcp/pcn183).

Counter-ions that a name gives are not always drawn.

This series is described as follows: RP, Waters ACQUITY UPLC BEH C18, 38 °C, 0.24 mL/min; A: water + 0.1% formic acid, pH 3; B: acetonitrile + 0.1% formic acid, pH 3; gradient (min/%B) 0/0 0.25/0 0.4/9 0.8/17 1.9/100 2.1/100 2.11/0 3/0. The note with it: stereoisomer not certain.

As for `Nc1c(O)cccc1C(=O)O` [3-Hydroxyanthranilic acid], the LC retention time is 1.13 min.

Regarding `O=c1cc[nH]cc1` [4-Hydroxypyridine], the LC retention time was 0.25 min.

For the compound `NCCS(=O)(=O)O` [Taurine], the LC retention time is 0.16 min.

On to `NC(CO)CC(=O)O` [L-beta-homoserine [(R)-3-Amino-4-hydroxy-butyric acid (+)]], for which the LC retention time is 0.16 min.

Regarding `CC1OC(Oc2c(-c3ccc(O)c(O)c3)oc3cc(O)cc(O)c3c2=O)C(O)C(O)C1O` (stereo not drawn) [Quercitrin], the LC retention time came out at 1.46 min.

Consider `O=C(O)CC(C(=O)O)C(O)C(=O)O` (racemic) [DL-Isocitric acid trisodium salt], for which the LC retention time worked out at 0.24 min.

With `[NH3+]CCCCCC(=O)[O-]` [6-Aminohexanoic acid], the LC retention time is 0.41 min.

`Nc1nc2c(ncn2C2OC(COP(=O)(O)OP(=O)(O)OC3OC(CO)C(O)C(O)C3O)C(O)C2O)c(=O)[nH]1` [Guanosine-5'-diphosphate-D-mannose sodium salt]: the LC retention time was found to be 0.27 min.

On to `CC(C)c1cccc(O)c(=O)c1` [Hinokitiol], for which the LC retention time was 1.49 min.

Turning to `N[C@H](CS)C(=O)O` [D-Cysteine], the LC retention time worked out at 0.15 min.

For the compound `CCC=CCC1C(=O)CCC1CC(=O)O` (racemic) [(+-)-Jasmonic acid], the LC retention time is 1.68 min.

Turning to `CS(=O)C=CCCN=C=S` (stereo not drawn), the LC retention time is 1.44 min.

On to `CC(O)(CC(=O)O)C(=O)O` (single isomer, unassigned; (-)) [(-)-Citramalic acid], for which the LC retention time came out at 0.51 min.

On to `CN=C(N)N` [Methylguanidine hydrochloride], for which the LC retention time was 0.18 min.

Consider `NCCC(=O)NC(Cc1cnc[nH]1)C(=O)O` [L-Carnosine], for which the LC retention time is 0.16 min.

On to `C[C@@H](O)[C@H](N)C(=O)O` [L-Threonine], for which the LC retention time came out at 0.17 min.

Turning to `O=C(O)C(O)Cc1ccccc1` (racemic) [DL-3-Phenyllactic acid], the LC retention time was 1.42 min.

On to `C[S+](CCC(N)C(=O)[O-])CC1OC(n2cnc3c(N)ncnc32)C(O)C1O` [S-(5'-Adenosyl)-L-methionine chloride], for which the LC retention time was determined as 0.19 min.

Take `CC(=O)OCC[N+](C)(C)C` [Acetylcholine chloride]: the LC retention time worked out at 0.24 min.

In the case of `O=C(O)Cc1c[nH]c2ccc(O)cc12` [5-Hydroxyindole-3-acetate (5-HIAA)], the LC retention time worked out at 1.27 min.

On to `CC(C)CC(O)C(=O)O` (stereo not drawn) [2-Hydroxyisocaproic acid], for which the LC retention time worked out at 1.34 min.

As to `O=C1CCNC(=O)N1` [5,6-Dihydrouracil], the LC retention time is 0.2 min.

In the case of `COc1ccc(C2CC(=O)c3c(O)cc(OC4OC(COC5OC(C)C(O)C(O)C5O)C(O)C(O)C4O)cc3O2)cc1O` (stereo not drawn) [Hesperidin], the LC retention time was found to be 1.45 min.

Take `NOCC(=O)O` [Aminooxyacetic acid Hemihydrochloride]: the LC retention time stood at 0.17 min.

As for `O=C(O)Cc1ccccc1O` [2-Hydroxyphenylacetic acid], the LC retention time came to 1.38 min.

In the case of `CC(N)CC(=O)O` (racemic) [DL-beta-Aminobutyric acid], the LC retention time came out at 0.18 min.

Take `O=C(O)C1CCCCN1` (racemic) [DL-Pipecolinic acid]: the LC retention time is 0.27 min.

With `NC(=NCCCC(N)C(=O)O)NC(CC(=O)O)C(=O)O` (stereo not drawn) [Argininosuccinic acid disodium salt], the LC retention time is 0.29 min.

On to `C[N+](C)(C)CCOP(=O)(O)O` [O-Phosphocholine], for which the LC retention time stood at 0.17 min.

As for `CC([NH3+])C(=O)NC(C)C(=O)[O-]` [D-Ala-D-ala], the LC retention time is 0.19 min.

For `NCCc1c[nH]c2ccc(O)cc12` [Serotonin hydrochloride], the LC retention time turned out to be 1.08 min.

As to `O=C(O)C(O)C(O)C(O)C(O)C(=O)O` (stereo not drawn) [mucic acid], the LC retention time is 2.13 min.

On to `COc1ccc(C=CC(=O)O)cc1` [4-Methoxycinnamic acid], for which the LC retention time was found to be 1.65 min.

As to `Cn1cncc1C[C@H](N)C(=O)O` [3-Methyl-L-histidine], the LC retention time was 0.15 min.

As to `C[n+]1cccc(C(N)=O)c1` [1-Methylnicotinamide chloride], the LC retention time stood at 0.18 min.

Consider `NC(N)=NCC(=O)O` [Glycocyamine], for which the LC retention time stood at 0.18 min.

With `c1ccc(NC[C@@H]2CCCN2)cc1` [(S)-(+)-2-(anilinomethyl)pyrrolidine], the LC retention time is 1.27 min.

On to `NC1(C(=O)O)CCCC1` [1-Amino-1-cyclopentanecarboxylic acid], for which the LC retention time turned out to be 0.32 min.

As to `CC(=O)NC(CC(=O)O)C(=O)O` (racemic) [N-Acetyl-DL-aspartic acid], the LC retention time was 0.31 min.

For `N[C@@H](CCSSCC[C@H](N)C(=O)O)C(=O)O` (racemic) [DL-homocystine], the LC retention time is 0.23 min.

Turning to `O=c1[nH]c(=O)c2ncn(C3OC(COP(=O)(O)O)C(O)C3O)c2[nH]1` (stereo not drawn), the LC retention time is 0.48 min.

Turning to `O=C1O[C@H]([C@@H](O)CO)C(O)=C1O` [L-Ascorbic acid], the LC retention time worked out at 1.15 min.

Consider `OCC1OC(Oc2cc3c(OC4OC(CO)C(O)C(O)C4O)cc(O)cc3[o+]c2-c2ccc(O)c(O)c2)C(O)C(O)C1O` (stereo not drawn) [cyanidin-3,5-di-O-glucoside chloride], for which the LC retention time was 1.11 min.

As to `O=C(O)[C@@H]1CCCN1` [L-Proline], the LC retention time is 0.19 min.

Consider `CC(CN)C(=O)O` (racemic) [DL-3-Aminoisobutyric acid], for which the LC retention time amounted to 0.19 min.

Consider `Oc1cccnc1` [3-Hydroxypyridine], for which the LC retention time amounted to 0.24 min.

Take `Cc1ncc(COP(=O)(O)O)c(C=O)c1O` [pyridoxal-5'-phosphate hydrate]: the LC retention time came out at 0.39 min.

Turning to `N[C@@H](Cc1cnc[nH]1)C(=O)O` [L-Histidine], the LC retention time is 0.15 min.

In the case of `C[N+](C)(C)C[C@H](O)CC(=O)[O-]` [L-Carnitine hydrochloride], the LC retention time is 0.18 min.

`NC(CCC(=O)NC(CSSCC(NC(=O)CCC(N)C(=O)O)C(=O)NCC(=O)O)C(=O)NCC(=O)O)C(=O)O` (stereo not drawn) [Glutathione (oxidized form)]: the LC retention time stood at 0.95 min.

For the compound `COc1cc(-c2[o+]c3cc(O)cc(O)c3cc2OC2OC(CO)C(O)C(O)C2O)cc(OC)c1O` (stereo not drawn) [Oenin], the LC retention time was 1.29 min.

For the compound `CC(=O)NC(CC(C)C)C(=O)NC(CC(C)C)C(=O)NC(C=O)CCCN=C(N)N` (stereo not drawn) [Leupeptin hemisulfate salt], the LC retention time was 1.42 min.

With `N[C@@H](Cc1ccccc1)C(=O)O` [L-(-)-Phenylalanine], the LC retention time is 1.09 min.

In the case of `OCC1OC(OC2C(O)C(O)C(O)C(O)C2O)C(O)C(O)C1O` (stereo not drawn) [Galactinol Dihydrate], the LC retention time was 0.16 min.

In the case of `NCCc1c[nH]c2ccccc12` [3-(2-Aminoethyl)indole Hydrochloride], the LC retention time was determined as 1.22 min.

In the case of `CCCCCCCCCCCCCCCCC` [Heptadecane], the LC retention time amounted to 1.81 min.

Turning to `O=C1c2c(O)cc(O)cc2OC(c2ccc(O)c(O)c2)C1O` (racemic) [(+-)-Taxifolin], the LC retention time came out at 1.45 min.

With `OCC1OC(OC2C(O)C(CO)OC2(CO)OC2OC(CO)C(O)C(O)C2O)C(O)C(O)C1O` [D-(+)-Melezitose hydrate], the LC retention time came to 0.21 min.

In the case of `CC(=O)NC(CO)C(=O)O` (racemic) [N-acetyl-DL-serine], the LC retention time turned out to be 0.24 min.

Consider `O=c1[nH]cnc2c1ncn2C1CC(O)C(COP(=O)(O)O)O1` (stereo not drawn) [2'-Deoxyinosine-5'-monophosphate sodium salt], for which the LC retention time came to 0.7 min.

With `O=C(O)C1=CCNCC1` [Isoguvacine hydrochloride], the LC retention time turned out to be 0.18 min.

In the case of `Nc1ncnc2c1ncn2C1OC(CO)C(O)C1O` (stereo not drawn) [Adenosine], the LC retention time was 1.06 min.

As for `Nc1ncnc2c1ncn2C1CC(O)C(CO)O1` (stereo not drawn) [2'-Deoxyadenosine monohydrate], the LC retention time was 1.07 min.

With `O=c1[nH]c(=O)c2cn[nH]c2[nH]1` [Oxypurinol], the LC retention time amounted to 0.7 min.

`CC(C)C(N)CC(=O)O` [L-beta-homovaline-HCl]: the LC retention time was found to be 0.55 min.

Consider `NCCCC[C@H](N)C(=O)O` [L-(+)-Lysine], for which the LC retention time worked out at 0.15 min.

Take `CSCC1OC(n2cnc3c(N)ncnc32)C(O)C1O` (stereo not drawn) [5'-Deoxy-5'-Methylthioadenosine]: the LC retention time turned out to be 1.14 min.

As to `CN(C)c1ccccc1` [N,N-Dimethylaniline], the LC retention time amounted to 1.11 min.

With `OCC1OC(OC2C(CO)OC(OC3C(CO)OC(O)C(O)C3O)C(O)C2O)C(O)C(O)C1O` (stereo not drawn) [Maltotriose hydrate], the LC retention time amounted to 0.22 min.

For `OCC1OC(OC2C(Oc3cc4c(O)cc(O)cc4[o+]c3-c3ccc(O)c(O)c3)OC(CO)C(O)C2O)C(O)C(O)C1O` (stereo not drawn), the LC retention time came out at 1.16 min.

On to `CN1CC(=O)NC1=N` [Creatinine,anhydrous], for which the LC retention time stood at 0.19 min.

As to `Nc1ncnc2c1ncn2C1CC(O)C(COP(=O)(O)O)O1` (stereo not drawn) [2'-Deoxyadenosine-5'-monophosphate], the LC retention time worked out at 0.62 min.

As for `O=[N+]([O-])c1ccc(OP(=O)(O)O)cc1` [4-Nitrophenyl phosphate disodium salt hexahydrate], the LC retention time amounted to 0.92 min.

Consider `CC(=O)NC1C(O)CC(O)(C(=O)O)OC1C(O)C(O)CO` (stereo not drawn) [N-acetylneuraminic acid,Type IV-S,Synthetic], for which the LC retention time came out at 0.18 min.

With `NC(N)=NCCCC(N)C(=O)O` (stereo not drawn) [L(+)-Arginine], the LC retention time stood at 0.16 min.

With `O=S(=O)(O)CCN1CCN(CCS(=O)(=O)O)CC1` [PIPES], the LC retention time came to 0.16 min.

Turning to `O=C[C@H](O)[C@H](O)COP(=O)(O)O` [D-Erythrose-4-phosphate sodium salt], the LC retention time was 0.16 min.

In the case of `CC=C(C)C(=O)NCC(=O)O` [N-Tigloylglycine], the LC retention time stood at 1.18 min.
